According to patent US4684650A, “Antihypertensive fluorophenylindanyl imidazolidinoneethylpiperazines” (priority 1984, dated 1987):
pIC50: −log10 of the molar value. Where two headings read alike, the source gives them in different places.

How the values were obtained:
[1] = tested on: methylphenidate induced stereotypies; test: Methylphenidate Antagonism; type: in vivo, mice; details: for ED50: Mus musculus, ip, read-out: MePh antg. ED50, i.p., mice, 2 hours before methylphenidate 60 mg/kg s.c.
Experimental: The experiments were made as described by Pedersen and Christensen (1972) Acta Pharmacol. et Toxicol. 31, 488-496.--Briefly, test compounds or saline were injected i.p. 2 hours before methylphenidate, 60 mg/kg s.c. 3 pairs of mice were used for each dose level. After methylphenidate injection the mice were placed in observation cages for one hour. The cages were placed on corrugated paper, the corrugation facing upwards.

[2] = tested on: 1-5-HTP-induced head shakes; test: 1-5-HTP-induced head shakes; type: in vivo; details: rats, 1-5-HTP 75 mg/kg i.p. after citalopram; for ED50: Rattus norvegicus, sc, read-out: 1-5-HTP-antg. ED50; for 1-5-HTP-antg. ED50: s.c.
Experimental: The rats were pretreated subcutaneously with test compound or saline simultaneously with or 90 min before injection of citalopram (10 mg/kg s.c.).
Each group consisted of 4-12 rats.

[3] = biological target: T1, 5-HT2 receptors (Rattus norvegicus, UniProt P14842); test: 3H-spiroperidol binding to 5-HT2 receptors; details: rat whole cortex, 0.5 nM 3H-spiroperidol, 0.3 μM sulpiride; read-out: 3H-SPI binding 5-HT2 IC50
T1 construct: Rat whole cortex was homogenized by an Ultra Turrax homogenizer; from tissue; host or cells: rat whole cerebral cortex, crude washed membranes
Experimental: ^3 H-spiroperidol binding to 5-HT2 receptors.
Rat whole cortex was homogenized by an Ultra Turrax homogenizer in 100 vol. of 50 mM Tris buffer pH 7.7. The homogenate was centrifuged at 20,000 g for 10 minutes at 4° C. The pellet was rehomogenized in another volume of buffer and centrifuged as mentioned above. The final pellet was rehomogenized in 50 mM Tris buffer pH 7.7 containing 120 mM NaCl, 5 mM KCl, 2 mM CaCl2 and 1 mM MgCl2 (ion mix) in a volume corresponding to 12.5 mg original tissue per ml.
Test drugs were dissolved in water; ^3 H-spiroperidol (NEN, 28-30 Ci/mmol) was diluted in 3 μM sulpiride, and 800 μl membrane suspension were added. Final concentration of ligand and sulpiride were 0.5 nM and 0.3 μM, respectively. The samples were incubated at 37° C. for 10 min. The samples were then filtered under vacuum through Whatman GF/B glass-fiber filters. The tubes were then rinsed with 5 ml incubation buffer, which was poured on the filters. The filters were finally washed twice with 5 ml buffer and placed in counting vials. After addition of 5 ml scintillation fluid (Lumagel) radioactivity was estimated by liquid scintillation counting. Non-specific binding was obtained by adding Mianserin (1 μM) to separate samples. Each drug was tested at least twice at 5 concentrations in triplicate. IC50-values were determined from log concentration-response curves.--The presence of sulpiride excluded binding to dopamine D-2 receptors.

[4] = tested on: spontaneous hypertensive rats (SHR); test: Antihypertensive effect in spontaneous hypertensive rats (SHR); type: in vivo; details: for change in vivo at 5 mg/kg / ED10: Rattus norvegicus, ip; for change in vivo at 5 mg/kg: 1 h; for peripheral or central action: in words; for Antihypertensive eff. SHR, max eff. in % of 5 mg/kg ip, DAP: diastolic pressure (DAP); for Antihypertensive eff. SHR, max eff. in % of 5 mg/kg ip, DAP / Antihypertensive eff. SHR, max eff. in % of 5 mg/kg ip, SAP: max change within one hour; for Antihypertensive eff. SHR, max eff. in % of 5 mg/kg ip, SAP: systolic pressure (SAP)
Experimental: Antihypertensive effect in spontaneous hypertensive rats (SHR)
The femoral artery of male SHR is cannulated in anaestesia for blood pressure recordings. After a stabilization period of 11/2 h after discontinuation of the anaesthesia initial blood pressure curves are recorded and the systolic (SAP)/diastolic (DAP) pressure determined (-20, -10, 0, min. p.i.) Test substance is injected i.p. and the pressure curve recorded for one hour. The change in SAP/DAP is calculated in percent at mean initial values at different times (10, 20, 30, 40, 50 and 60 minutes after injection). At least two SHR are used per dose level. The maximum change is used for estimation of the drug effect.

[5] = tested on: 5-HT pressor responses; test: Antagonism to 5-HT pressor responses in pithed rats; type: in vivo; details: for change in vivo at 0.02 mg/kg / ED50: Rattus norvegicus, iv; for change in vivo at 0.02 mg/kg: read-out: Effects on pressor response of 5-HT, % eff. of 0.02 mg/kg, pithed rats, 0.02 mg/kg, jugular vein; for ED50: read-out: Effects on pressor response of 5-HT, ED50, pithed rats, jugular vein
Experimental: (§1) The rat is anaesthetized with ether, tracheotomized, artificial respired and pithed. The knitting-needle is introduced through the right orbita into the cranial cavity and passed through foramen magnum into the spinal canal as far as possible. The spinal cord is destroyed by turning the needle. After vagotomi both carotides are ligated and a catheter placed in the right one for pressure recording. The rat is adrenalectomized. […] The initial and post medication mean pressor effect is calculated, and the mean pressor effect is calculated as % of the initial value. Two to five preparations are employed for each dose level. The ED50 is determined.

[6] = tested on: phenylephrine pressor responses; test: Antagonism to phenylephrine pressor responses in pithed rats; type: in vivo; details: for ED50: Rattus norvegicus, iv, read-out: Effects on pressor response of Phenylephrine, ED50; for Phenylephr. antg./5-HT antg. (ratio): pithed rats, ratio of phenylephrine ED50 to 5-HT ED50
Experimental: as §1

[7] = read-out: Antihypertensive eff. SHR, max eff. in % of 5 mg/kg ip, DAP, 5 mg/kg ip, diastolic pressure (DAP), max change within one hour
[8] = read-out: Antihypertensive eff. SHR, max eff. in % of 5 mg/kg ip, SAP, 5 mg/kg ip, systolic pressure (SAP), max change within one hour
[9] = read-out: Antihypertensive eff. SHR, ED10 DAP
[10] = read-out: Antihypertensive eff. SHR, ED10 SAP

T1 sequence (P14842 whole entry): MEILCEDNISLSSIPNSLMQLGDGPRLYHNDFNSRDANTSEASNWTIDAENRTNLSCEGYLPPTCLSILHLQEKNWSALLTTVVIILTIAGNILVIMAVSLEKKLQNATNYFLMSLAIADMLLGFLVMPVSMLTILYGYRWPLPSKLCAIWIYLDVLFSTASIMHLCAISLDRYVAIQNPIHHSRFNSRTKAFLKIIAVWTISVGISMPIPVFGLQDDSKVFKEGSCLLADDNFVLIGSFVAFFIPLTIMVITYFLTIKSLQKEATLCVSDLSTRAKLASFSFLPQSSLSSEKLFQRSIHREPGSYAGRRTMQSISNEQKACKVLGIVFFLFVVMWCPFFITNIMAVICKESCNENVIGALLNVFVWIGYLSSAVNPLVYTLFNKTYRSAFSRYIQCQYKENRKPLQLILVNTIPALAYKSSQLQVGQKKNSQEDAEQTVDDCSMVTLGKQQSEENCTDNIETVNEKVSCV

Cc1ccc2c(c1)[C@H](N1CCN(CCN3CCOC3=O)CC1)C[C@H]2c1ccc(F)cc1 (relative stereo) [compound 9]
ED50 [1]: 29 µmol/kg
ED50 [2]: 0.45 µmol/kg
pIC50 [3]: 7.68
change in vivo at 5 mg/kg [4, 7]: -41%
change in vivo at 5 mg/kg [4, 8]: -32%
ED10 [4, 9]: 3.5 µmol/kg
ED10 [4, 10]: 4.5 µmol/kg
change in vivo at 0.02 mg/kg [5]: -73%
ED50 [5]: 0.02 µmol/kg
ED50 [6]: 1.51 µmol/kg
Phenylephr. antg./5-HT antg. (ratio) [6]: 76

Cc1ccc2c(c1)[C@H](N1CCN(CCN3CCNC3=O)CC1)C[C@H]2c1ccc(F)cc1 (relative stereo) [compound 4, Trans-1-[3-(4-fluorophenyl)-6-methylindan-1-yl]-4-[2-(2-imidazolidinon-1-yl)ethyl]piperazine]
ED50 [1]: 27 µmol/kg
ED50 [2]: 0.13 µmol/kg
pIC50 [3]: 7.64
change in vivo at 5 mg/kg [4, 7]: -32%
change in vivo at 5 mg/kg [4, 8]: -27%
ED10 [4, 9]: 2.4 µmol/kg
ED10 [4, 10]: 3.3 µmol/kg
change in vivo at 0.02 mg/kg [5]: -73%
ED50 [5]: 0.017 µmol/kg
ED50 [6]: 2.02 µmol/kg
Phenylephr. antg./5-HT antg. (ratio) [6]: 119

O=C1NCCN1CCCN1CCN([C@@H]2C[C@@H](c3ccc(F)cc3)c3ccc(F)cc32)CC1 (relative stereo) [compound 14]
ED50 [1]: 56 µmol/kg
ED50 [2]: 2 µmol/kg
pIC50 [3]: 8.20
change in vivo at 5 mg/kg [4, 7]: -19%
change in vivo at 5 mg/kg [4, 8]: -12%
peripheral or central action [4]: mainly possess periferal action
change in vivo at 0.02 mg/kg [5]: -68%
ED50 [5]: 0.031 µmol/kg
ED50 [6]: 2.68 µmol/kg
Phenylephr. antg./5-HT antg. (ratio) [6]: 86

O=C1NCCN1CCN1CCN([C@@H]2C[C@@H](c3ccc(F)cc3)c3ccccc32)CC1 (single isomer, unassigned) [+1, (+)trans-1-[3-(4-fluorophenyl]indan-1-yl]-4-[2-(2-imidazolidinon-1-yl)ethyl]piperazine]
ED50 [1]: > 97 µmol/kg
1-5-HTP-antg. ED50 [2]: 1.5 µmol/kg
pIC50 [3]: 8.22
Antihypertensive eff. SHR, max eff. in % of 5 mg/kg ip, DAP ([4]; 5 mg/kg ip): -47%
Antihypertensive eff. SHR, max eff. in % of 5 mg/kg ip, SAP ([4]; 5 mg/kg ip): -33%
ED10 [4, 9]: 1.2 µmol/kg
ED10 [4, 10]: 1.7 µmol/kg
peripheral or central action [4]: mainly possess periferal action
ED50 [5]: 0.009 µmol/kg
Effects on pressor response of 5-HT, % eff. of 0.02 mg/kg ([5]; pithed rats, 0.02 mg/kg, jugular vein): -81%
ED50 [6]: 3.21 µmol/kg
Phenylephr. antg./5-HT antg. (ratio) [6]: 357

O=C1NCCN1CCN1CCN([C@@H]2C[C@@H](c3ccc(F)cc3)c3ccc(F)cc32)CC1 (relative stereo) [compound 2]
ED50 [1]: 79 µmol/kg
ED50 [2]: 0.13 µmol/kg
pIC50 [3]: 8.17
change in vivo at 5 mg/kg [4, 7]: -19%
change in vivo at 5 mg/kg [4, 8]: -14%
ED10 [4, 9]: 4.1 µmol/kg
ED10 [4, 10]: 9.2 µmol/kg
change in vivo at 0.02 mg/kg [5]: -89%
ED50 [5]: 0.017 µmol/kg
ED50 [6]: 2.55 µmol/kg
Phenylephr. antg./5-HT antg. (ratio) [6]: 150

O=C1NCCN1CCN1CCN([C@@H]2C[C@@H](c3ccc(F)cc3)c3ccccc32)CC1 (relative stereo) [compound 1]
ED50 [1]: > 98 µmol/kg
ED50 [2]: 1.3 µmol/kg
pIC50 [3]: 7.60
change in vivo at 5 mg/kg [4, 7]: -43%
change in vivo at 5 mg/kg [4, 8]: -33%
ED10 [4, 9]: 4.2 µmol/kg
ED10 [4, 10]: 5.9 µmol/kg
change in vivo at 0.02 mg/kg [5]: -68%
ED50 [5]: 0.024 µmol/kg
ED50 [6]: 3.13 µmol/kg

OCCN1CCN([C@@H]2C[C@@H](c3ccc(F)cc3)c3ccc(C(F)(F)F)cc32)CC1 (racemic) [Tefludazine, (±)trans-4-[3-(4-fluorophenyl)-6-(trifluoromethyl)-indan-1-yl]-1-piperazineethanol, reference compound]
ED50 [1]: 0.06 µmol/kg
activity against methylphenidate induced stereotypies ([1]; in words): high activity
ED50 [2]: 0.039 µmol/kg
pIC50 [3]: 8.07
change in vivo at 5 mg/kg [4, 7]: -24%
change in vivo at 5 mg/kg [4, 8]: -18%
peripheral or central action [4]: marked central effects
change in vivo at 0.02 mg/kg [5]: -78%
ED50 [5]: 0.015 µmol/kg
ED50 [6]: 1.7 µmol/kg
Phenylephr. antg./5-HT antg. (ratio) [6]: 115

CSc1ccc2c(c1)[C@H](N1CCN(CCN3CCOC3=O)CC1)C[C@H]2c1ccc(F)cc1 (relative stereo) [compound 10, Trans-1-[3-(4-fluorophenyl)-6-methylthioindan-1-yl]-4-[2-(2-oxazolidinon-3-yl)ethyl]piperazine]
ED50 [1]: > 76 µmol/kg
ED50 [2]: 2.4 µmol/kg
pIC50 [3]: 8.18
change in vivo at 5 mg/kg [4, 7]: -22%
change in vivo at 5 mg/kg [4, 8]: -14%
change in vivo at 0.02 mg/kg [5]: -57%
ED50 [5]: 0.034 µmol/kg
ED50 [6]: 9.4 µmol/kg
Phenylephr. antg./5-HT antg. (ratio) [6]: 276

O=C1NCCN1CCN1CCN([C@@H]2C[C@@H](c3ccc(F)cc3)c3ccc(F)cc32)CC1 (single isomer, unassigned) [-2]
MePh antg. ED50 ([1]; i.p., mice, 2 hours before methylphenidate 60 mg/kg s.c.): > 61 µmol/kg
1-5-HTP-antg. ED50 [2]: 20 µmol/kg
pIC50 [3]: 6.49
Antihypertensive eff. SHR, max eff. in % of 5 mg/kg ip, DAP ([4]; 5 mg/kg ip): +4%
Antihypertensive eff. SHR, max eff. in % of 5 mg/kg ip, SAP ([4]; 5 mg/kg ip): +6%
change in vivo at 0.02 mg/kg [5]: 2%
Effects on pressor response of 5-HT, ED50 ([5]; pithed rats, jugular vein): 1.43 µmol/kg

O=c1[nH]c2ccccc2n1CCN1CCN([C@@H]2C[C@@H](c3ccc(F)cc3)c3ccc(F)cc32)CC1 (relative stereo) [compound 16]
ED50 [1]: > 72 µmol/kg
ED50 [2]: 0.28 µmol/kg
pIC50 [3]: 8.01
change in vivo at 5 mg/kg [4, 7]: -11%
change in vivo at 5 mg/kg [4, 8]: -15%
change in vivo at 0.02 mg/kg [5]: -52%

O=C1NCCCN1CCN1CCN([C@@H]2C[C@@H](c3ccc(F)cc3)c3ccc(F)cc32)CC1 (relative stereo) [compound 25]
ED50 [1]: > 59 µmol/kg
ED50 [2]: 1.2 µmol/kg
pIC50 [3]: 7.92
Antihypertensive eff. SHR, max eff. in % of 5 mg/kg ip, SAP/DAP (inactive) ([4]; 5 mg/kg ip, SAP/DAP): I
change in vivo at 0.02 mg/kg [5]: -60%

Fc1ccc([C@@H]2C[C@@H](N3CCN(CCN4CCNC4=S)CC3)c3cc(F)ccc32)cc1 (single isomer, unassigned) [+24]
ED50 [1]: 17 µmol/kg
ED50 [2]: 0.03 µmol/kg
pIC50 [3]: 8.60
change in vivo at 5 mg/kg [4, 7]: -40%
change in vivo at 5 mg/kg [4, 8]: -32%
change in vivo at 0.02 mg/kg [5]: -88%

CC(C)N1CCN(CCN2CCN([C@@H]3C[C@@H](c4ccc(F)cc4)c4ccc(F)cc43)CC2)C1=O (relative stereo) [compound 13]
ED50 [1]: > 73 µmol/kg
ED50 [2]: 0.11 µmol/kg
pIC50 [3]: 8.28
change in vivo at 5 mg/kg [4, 7]: -5%
change in vivo at 5 mg/kg [4, 8]: -5%
peripheral or central action [4]: marked central effects
change in vivo at 0.02 mg/kg [5]: -79%
